Data reported in patent US12410160B2 (Gilead Sciences, Inc., priority 2021, dated 2025).
Values joined by “and” are separate entries in the source; they are usually repeats but may differ in a detail not shown here. Equal entries are not always repeated.

Experiments:
human KHK-A = human KHK-A (Homo sapiens (Human), UniProt P50053); assay: KHK Biochemical Assay (IC50), ADP-Glo, KHK-A; settings: average of at least two separate assays
Method in brief: (§1)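 His-tagged enzyme expressed in BL21 (DE3), Ni-NTA purified. Compounds, serially diluted 1:3 in DMSO, pre-incubated 30 min with enzyme in 50 mM Hepes pH 7.4, 140 mM KCl, 5 mM MgCl2, 0.01% Triton-X, then ATP and fructose added; 4 h at room temperature. ADP formation read by ADP-Glo luminescence.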

human KHK-C = human KHK-C (Homo sapiens (Human), UniProt P50053); assay: KHK Biochemical Assay (IC50), ADP-Glo, KHK-C; settings: average of at least two separate assays
Method in brief: as §1

Chain of human KHK-A (P50053 other isoform, or with tags, fused parts or gaps): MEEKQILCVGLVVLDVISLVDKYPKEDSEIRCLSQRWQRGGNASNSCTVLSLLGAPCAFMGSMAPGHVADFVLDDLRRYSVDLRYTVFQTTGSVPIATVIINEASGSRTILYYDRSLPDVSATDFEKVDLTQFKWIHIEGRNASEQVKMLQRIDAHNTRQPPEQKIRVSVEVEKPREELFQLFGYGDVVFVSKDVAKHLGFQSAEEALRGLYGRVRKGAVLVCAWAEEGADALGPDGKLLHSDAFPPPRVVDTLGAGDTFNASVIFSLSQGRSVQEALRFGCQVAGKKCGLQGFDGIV
Chain of human KHK-C (P50053 whole entry): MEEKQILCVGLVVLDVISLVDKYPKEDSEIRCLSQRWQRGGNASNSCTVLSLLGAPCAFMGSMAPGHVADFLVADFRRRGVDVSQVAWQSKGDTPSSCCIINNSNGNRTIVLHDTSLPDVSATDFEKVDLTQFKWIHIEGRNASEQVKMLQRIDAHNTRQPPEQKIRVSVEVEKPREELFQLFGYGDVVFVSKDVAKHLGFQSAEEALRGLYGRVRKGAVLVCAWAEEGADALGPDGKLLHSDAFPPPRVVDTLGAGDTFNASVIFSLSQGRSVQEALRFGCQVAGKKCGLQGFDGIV

C[C@H]1CCN1c1nc2c(c(-c3ccc(-c4ccn[nH]4)cc3)n1)CCC2 [Example 103, (S)-4-(4-(1H-pyrazol-5-yl)phenyl)-2-(2-methylazetidin-1-yl)-6,7-dihydro-5H-cyclopenta[d]pyrimidine]
IC50 (human KHK-A; ADP-Glo): 707 nM
IC50 (human KHK-C; ADP-Glo): 1280 nM

C[C@H]1CCN1c1nc2c(c(-c3ccc(C4(N5CCN(C)CC5)CC4)cc3)n1)CCC2 [Example 302, (S)-2-(2-methylazetidin-1-yl)-4-(4-(1-(4-methylpiperazin-1-yl)cyclopropyl)phenyl)-6,7-dihydro-5H-cyclopenta[d]pyrimidine]
IC50 (human KHK-A; ADP-Glo): 636 nM
IC50 (human KHK-C; ADP-Glo): 849 nM

COC1Cc2cc(-c3nc(N4CC[C@@H]4C)nc4c3CCC4)ccc2C1NS(C)(=O)=O (stereo partly drawn) [Example 892, N-(2-methoxy-5-(2-((S)-2-methylazetidin-1-yl)-6,7-dihydro-5H-cyclopenta[d]pyrimidin-4-yl)-2,3-dihydro-1H-inden-1-yl)methanesulfonamide]
IC50 (human KHK-A; ADP-Glo): 330 nM
IC50 (human KHK-C; ADP-Glo): 99.5 nM

C[C@H]1[C@H](O)CN1c1nc2c(c(-c3cccc(S(N)(=O)=O)c3)n1)CCOC2 [Example 286]
IC50 (human KHK-A; ADP-Glo): 718 nM
IC50 (human KHK-C; ADP-Glo): 753 nM

C[C@H]1CCN1c1nc2c(c(-c3ccc(C#N)s3)n1)CCC2 [Example 49, (S)-5-(2-(2-methylazetidin-1-yl)-6,7-dihydro-5H-cyclopenta[d]pyrimidin-4-yl)thiophene-2-carbonitrile]
IC50 (human KHK-A; ADP-Glo): 125 nM
IC50 (human KHK-C; ADP-Glo): 222 nM

C[C@H]1CCN1c1nc2c(c(-c3ccccc3CCC(=O)O)n1)CCC2 [Example 5, (S)-3-(2-(2-(2-methylazetidin-1-yl)-6,7-dihydro-5H-cyclopenta[d]pyrimidin-4-yl)phenyl)propanoic acid]
IC50 (human KHK-A; ADP-Glo): 5920 nM
IC50 (human KHK-C; ADP-Glo): 7900 nM

COc1cc(S(=N)(=O)c2cc(-c3nc(N4CC[C@@H]4C)nc4c3CCC4)ccc2OC)ccc1C#N (stereo partly drawn) [Example 850, 2-methoxy-4-(2-methoxy-5-(2-((S)-2-methylazetidin-1-yl)-6,7-dihydro-5H-cyclopenta[d]pyrimidin-4-yl)phenylsulfonimidoyl)benzonitrile]
IC50 (human KHK-A; ADP-Glo): 59.6 nM
IC50 (human KHK-C; ADP-Glo): 141 nM

C[C@H]1CCN1c1nc2c(c(-c3cccc(C(=O)N4CC[C@@H]4C(=O)O)c3)n1)CCC2 [Example 78, (R)-1-(3-(2-((S)-2-methylazetidin-1-yl)-6,7-dihydro-5H-cyclopenta[d]pyrimidin-4-yl)benzoyl)azetidine-2-carboxylic acid]
IC50 (human KHK-A; ADP-Glo): 193 nM and 134 nM
IC50 (human KHK-C; ADP-Glo): 239 nM and 129 nM

COc1cc(-c2nc(N3CC[C@@H]3C)nc3c2CCC3)ccc1CS(N)(=O)=O [Example 862, (S)-(2-methoxy-4-(2-(2-methylazetidin-1-yl)-6,7-dihydro-5H-cyclopenta[d]pyrimidin-4-yl)phenyl)methanesulfonamide]
IC50 (human KHK-A; ADP-Glo): 48.1 nM
IC50 (human KHK-C; ADP-Glo): 76.4 nM

CC(=O)Nc1ncc(S(=O)(=O)Nc2cccc(-c3nc(N4CC[C@@H]4C)nc4c3CCC4)c2)s1 [Example 84, (S)—N-(5-(N-(3-(2-(2-methylazetidin-1-yl)-6,7-dihydro-5H-cyclopenta[d]pyrimidin-4-yl)phenyl)sulfamoyl)thiazol-2-yl)acetamide]
IC50 (human KHK-A; ADP-Glo): 296 nM
IC50 (human KHK-C; ADP-Glo): 279 nM

C[C@H]1CCN1c1nc2c(c(-c3cnccn3)n1)CCC2 [Example 344, 2-[(2S)-2-methylazetidin-1-yl]-4-pyrazin-2-yl-6,7-dihydro-5H-cyclopenta[d]pyrimidine]
IC50 (human KHK-A; ADP-Glo): 175 nM
IC50 (human KHK-C; ADP-Glo): 224 nM

C[C@H]1CCN1c1nc(-c2cccc(S(N)(=O)=O)c2)c2c(cnn2C)n1 [Example 37, (S)-3-(1-methyl-5-(2-methylazetidin-1-yl)-1H-pyrazolo[4,3-d]pyrimidin-7-yl)benzenesulfonamide]
IC50 (human KHK-A; ADP-Glo): 224 nM
IC50 (human KHK-C; ADP-Glo): 213 nM

NC1(c2ccc(-c3nc(N4CC[C@@H]4C(F)(F)F)nc4c3CCC4(F)F)s2)COC1 [Example 896, (R)-3-(5-(7,7-difluoro-2-(2-(trifluoromethyl)azetidin-1-yl)-6,7-dihydro-5H-cyclopenta[d]pyrimidin-4-yl)thiophen-2-yl)oxetan-3-amine]
IC50 (human KHK-A; ADP-Glo): 2.1 nM
IC50 (human KHK-C; ADP-Glo): 1.7 nM

C[C@H]1CCN1c1nc2c(c(-c3ccc4c(c3)CCCCC4NS(C)(=O)=O)n1)CCC2 (stereo partly drawn) [Example 854, N-(2-(2-((S)-2-methylazetidin-1-yl)-6,7-dihydro-5H-cyclopenta[d]pyrimidin-4-yl)-6,7,8,9-tetrahydro-5H-benzo[7]annulen-5-yl)methanesulfonamide]
IC50 (human KHK-A; ADP-Glo): 543 nM
IC50 (human KHK-C; ADP-Glo): 442 nM

NC1(c2ccc(-c3nc(N4CC[C@@H]4C(F)(F)F)nc4c3CCC4(F)F)cc2)CCOC1 (stereo partly drawn) [Example 587, 3-[4-[7,7-difluoro-2-[(2R)-2-(trifluoromethyl)azetidin-1-yl]-5,6-dihydrocyclopenta[d]pyrimidin-4-yl]phenyl]tetrahydrofuran-3-amine]
IC50 (human KHK-A): 0.5 nM
IC50 (human KHK-C): 0.4 nM

C[C@H]1[C@H](O)CN1c1nc(-c2ccc3c(c2)OCCC32COC(=O)N2)c2c(n1)C(F)(F)CC2 (stereo partly drawn) [Example 553, 7-(7,7-difluoro-2-((2S,3R)-3-hydroxy-2-methylazetidin-1-yl)-6,7-dihydro-5H-cyclopenta[d]pyrimidin-4-yl)spiro[chromane-4,4′-oxazolidin]-2′-one]
IC50 (human KHK-A): 15.3 nM
IC50 (human KHK-C): 1.6 nM

COc1ccc(-c2nc(N3CC[C@@H]3C)nc3c2CCC3)cc1S(=N)(=O)CCN(C)C(C)=O (stereo partly drawn) [Example 881, N-(2-(2-methoxy-5-(2-((S)-2-methylazetidin-1-yl)-6,7-dihydro-5H-cyclopenta[d]pyrimidin-4-yl)phenylsulfonimidoyl)ethyl)-N-methylacetamide]
IC50 (human KHK-A; ADP-Glo): 46 nM
IC50 (human KHK-C; ADP-Glo): 70.5 nM

COc1ccc(-c2nc(N3CC[C@@H]3C)nc3c2CCC3)cc1S(=N)(=O)C1CCOCC1 (stereo partly drawn) [Example 840, imino(2-methoxy-5-(2-((S)-2-methylazetidin-1-yl)-6,7-dihydro-5H-cyclopenta[d]pyrimidin-4-yl)phenyl)(tetrahydro-2H-pyran-4-yl)-λ^6-sulfanone]
IC50 (human KHK-A; ADP-Glo): 7.7 nM
IC50 (human KHK-C; ADP-Glo): 26.3 nM

C[C@H]1CCN1c1nc2c(c(-c3ccc(CN(C)C)cc3)n1)CCC2 [Example 368, N,N-dimethyl-1-[4-[2-[(2S)-2-methylazetidin-1-yl]-6,7-dihydro-5H-cyclopenta[d]pyrimidin-4-yl]phenyl]methanamine]
IC50 (human KHK-A; ADP-Glo): 38.3 nM
IC50 (human KHK-C; ADP-Glo): 20 nM

C[C@H]1CCN1c1nc(-c2ccns2)c2c(n1)C1CC1C2 (stereo partly drawn) [Example 273, 5-(2-((S)-2-methylazetidin-1-yl)-5,5a,6,6a-tetrahydrocyclopropa[4,5]cyclopenta[1,241]pyrimidin-4-yl)isothiazole]
IC50 (human KHK-A; ADP-Glo): 433 nM
IC50 (human KHK-C; ADP-Glo): 532 nM

C[C@H]1[C@H](O)CN1c1nc(-c2ccc3c(c2)CCC32COCC(=O)N2)c2c(n1)C(F)(F)CC2 (stereo partly drawn) [Example 548, 5-(7,7-difluoro-2-((2S,3R)-3-hydroxy-2-methylazetidin-1-yl)-6,7-dihydro-5H-cyclopenta[d]pyrimidin-4-yl)-2,3-dihydrospiro[indene-1,3′-morpholin]-5′-one]
IC50 (human KHK-A): 7.3 nM
IC50 (human KHK-C): 0.1 nM

C[C@H]1CCN1c1nc2c(c(-c3ccc4c(O)n[nH]c4c3)n1)CCC2 [Example 120, (S)-6-(2-(2-methylazetidin-1-yl)-6,7-dihydro-5H-cyclopenta[d]pyrimidin-4-yl)-1H-indazol-3-ol]
IC50 (human KHK-A; ADP-Glo): 46.1 nM
IC50 (human KHK-C; ADP-Glo): 42.7 nM

C[C@@H]1Oc2cc(-c3nc(N4CC[C@@H]4C)nc4c3CCC4)ccc2[C@@H]1NS(C)(=O)=O [Example 887, N-((2s,3s)-2-methyl-6-(2-((S)-2-methylazetidin-1-yl)-6,7-dihydro-5H-cyclopenta[d]pyrimidin-4-yl)-2,3-dihydrobenzofuran-3-yl)methanesulfonamide]
IC50 (human KHK-A; ADP-Glo): 44.4 nM
IC50 (human KHK-C; ADP-Glo): 10.5 nM

C[C@H]1[C@H](O)CN1c1nc(-c2ccc3c(c2)OC[C@@]32NC(=O)OC2(C)C)c2c(n1)C(F)(F)CC2 (single isomer, unassigned) [Example 567]
IC50 (human KHK-A): 65 nM
IC50 (human KHK-C): 44.3 nM

COc1ccc(-c2nc(N3CC[C@@H]3C)nc3c2CCC3)cc1S(=N)(=O)c1ccc(C#N)cc1Cl (stereo partly drawn) [Example 849, 3-chloro-4-(2-methoxy-5-(2-((S)-2-methylazetidin-1-yl)-6,7-dihydro-5H-cyclopenta[d]pyrimidin-4-yl)phenylsulfonimidoyl)benzonitrile]
IC50 (human KHK-A; ADP-Glo): 16.3 nM
IC50 (human KHK-C; ADP-Glo): 25.4 nM

C[C@H]1CCN1c1nc2c(c(-c3cc4c(N)n[nH]c4cn3)n1)CCC2 [Example 867, (S)-5-(2-(2-methylazetidin-1-yl)-6,7-dihydro-5H-cyclopenta[d]pyrimidin-4-yl)-1H-pyrazolo[3,4-c]pyridin-3-amine]
IC50 (human KHK-A; ADP-Glo): > 1000 nM
IC50 (human KHK-C; ADP-Glo): > 1000 nM

C[C@H]1CCN1c1nc(-c2cn[nH]c2)c2c(cnn2C)n1 [Example 35, (S)-1-methyl-5-(2-methylazetidin-1-yl)-7-(1H-pyrazol-4-yl)-1H-pyrazolo[4,3-d]pyrimidine]
IC50 (human KHK-A; ADP-Glo): 189 nM
IC50 (human KHK-C; ADP-Glo): 220 nM

C[C@H]1CCN1c1nc2c(c(-c3ccc4c(c3)N(C)C(=O)CNC4)n1)CCC2 [Example 856, (S)-1-methyl-8-(2-(2-methylazetidin-1-yl)-6,7-dihydro-5H-cyclopenta[d]pyrimidin-4-yl)-1,3,4,5-tetrahydro-2H-benzo[e][1,4]diazepin-2-one]
IC50 (human KHK-A; ADP-Glo): 143 nM
IC50 (human KHK-C; ADP-Glo): 175 nM

C[C@H]1CCN1c1nc2c(c(-c3ccccc3)n1)CC1(CC1)C2 [Example 335, 2-[(2S)-2-methylazetidin-1-yl]-4-phenyl-spiro[5,7-dihydrocyclopenta[d]pyrimidine-6,1′-cyclopropane]]
IC50 (human KHK-A; ADP-Glo): > 50000 nM
IC50 (human KHK-C; ADP-Glo): > 50000 nM

NC1(c2ccc(-c3nc(N4CCC5CC54)nc4c3CCC4(F)F)cc2)COC1 (stereo not drawn) [Example 571, 3-(4-(2-(2-azabicyclo[3.1.0]hexan-2-yl)-7,7-difluoro-6,7-dihydro-5H-cyclopenta[d]pyrimidin-4-yl)phenyl)oxetan-3-amine]
IC50 (human KHK-A): 43.5 nM
IC50 (human KHK-C): 49.7 nM
